Laboratory results reported in patent publication US11529359B2, “Use of GABAA receptor modulators for treatment of itch” (UNIVERSITÄT ZÜRICH, priority 2016, dated 2022).

Legend:
motor coordination = assay: rotarod assay (motor coordination); format: in vivo, mice; conditions: p.o., 60 min after administration
Description: (§1) Locomotor activity, muscle relaxant effects and motor coordination were assessed as described previously (Ralvenius, W. T., Benke, D., Acuña, M. A., Rudolph, U. & Zeilhofer, H. U. Nature Communications, 2015, 6). […] Motor coordination was assessed with a rotarod accelerating from 4 rpm to 40 rpm within 5 min. […] Fifteen measurements were taken per mouse. To assess muscle relaxation, mice were placed with their forepaws onto a metal horizontal wire placed 20 cm above ground.

histamine-induced itch = histamine-induced itch (cheek injection) in wild-type mice; format: in vivo, wild-type C57BL6/J mice; conditions: per oral 0.01, 0.03, 0.1, 1 and 3 mg/kg 90 min before 100 μg histamine; 30 min
Description: (§2) Acute itch was assessed in mice that received intradermal microinjections of pruritogens or 0.9% saline into the right cheek, which had been shaved at least one day before the experiment. In two sets of experiments that addressed the contribution of GABAARs in primary and secondary pruritoceptors, pruritogens were injected in the right thigh (FIG. 17). Before injection, mice were acclimatized to a 15 cm diameter cylindrical enclosure for more than 30 min with cage bedding on the ground. Background white noise generated by a radio in the room at ambient volume was applied to prevent auditory distraction. A 30 gauge needle was inserted bevel-up and pushed 5 mm horizontally into the skin beyond the point of insertion, before injection of the pruritogen (in a total volume of 10 μl). No anesthesia was used. Correct injection was confirmed by the appearance of a slightly domed bulla upon injection. […] Videos were analyzed off-line. Scratching of the hind paw directed to the ipsilateral cheek was counted in bouts, with one scratching bout defined as an instance when the mouse lifted its paw to scratch until it returned the paw to the cage floor. In case of experiments in which the pruritogen was injected in the skin of the thigh, the time spent biting the injected skin area was counted in s/min as a measure of itch.

α-Me-5HT-induced itch = assay: α-methyl 5-HT-induced itch (cheek injection) in wild-type mice; format: in vivo, wild-type mice (129X1/SvJ); conditions: 1 mg/kg p.o.; 20 μg α-methyl 5-HT
α5GABAARs = assay: GABA-evoked currents, recombinant GABAARs in HEK293 cells (α5); format: cell-based; conditions: HEK293 cells transiently transfected
From the text: (§3) HEK293 cells were transfected using lipofectamine LTX (Dugue, G. P., et al. Neuron, 2009, 61, 126-139). To ensure expression of the γ2 subunit (required for modulation of GABAARs by BDZs) in all recorded cells, the inventors transfected cells with a plasmid expressing the γ2 subunit plus eGFP from an IRES, and only selected eGFP-positive cells for recordings. The transfection mixture contained (in μg): 1 α1, 1 β2, 3 γ2/eGFP (used as a marker of successful transfection) or 1 αx, 1 β3, 3 γ2/eGFP in case of α2, α3, or α5GABAARs. Recordings were made 18-36 hrs after transfection. Whole-cell patch-clamp recordings of GABA-evoked currents were made at room temperature (20-24° C.) and at a holding potential of −60 mV. Recording electrodes were filled with solution containing (in mM): 120 CsCl, 10 EGTA, 10 HEPES (pH 7.40), 4 MgCl2, 0.5 GTP and 2 ATP. The external solution contained (in mM): 150 NaCl, 10 KCl, 2.0 CaCl2, 1.0 MgCl2, 10 HEPES (pH 7.4), and 10 glucose. GABA was applied to the recorded cell using a manually controlled pulse (4-6 s) of a low sub-saturating GABA concentration (ECS). ECs values of GABA were determined for all subunit combinations analyzed. […] Imax was determined as the average maximal current elicited by a concentration of 1 mM GABA. […]

[1] = system: brain membranes prepared from α1,2,3,5 H→R point mutated mice; format: binding, mice (RRRR); conditions: 4 nM [3H]Ro 15-4513; increasing concentrations; n=4
Description: The supernatant was centrifuged for 20 min at 30,000 g and the resulting crude membrane pellet was washed once with buffer. […] Non-specific [^3H]Ro 15-4513 binding was assessed by addition of 10 μM flumazenil to the reaction. Incubation was stopped by rapid vacuum filtration using a semiautomatic cell harvester (Skatron Instruments) and washed filters were subjected to liquid scintillation counting.

muscle relaxation = assay: horizontal wire test (muscle relaxation); format: in vivo, mice; conditions: p.o., 60-120 min after administration
Description: as §1

α3 GABAARs = biological target: T1, α3 GABAARs (Homo sapiens, UniProt P18507+P34903); assay: GABA-evoked currents, recombinant GABAARs in HEK293 cells (α3); format: cell-based; conditions: HEK293 cells transiently transfected
T1 construct: expressed in transfected cells; host or cells: HEK293 cells (ATCC), transient transfection
T1 sequence (P34903 29-492): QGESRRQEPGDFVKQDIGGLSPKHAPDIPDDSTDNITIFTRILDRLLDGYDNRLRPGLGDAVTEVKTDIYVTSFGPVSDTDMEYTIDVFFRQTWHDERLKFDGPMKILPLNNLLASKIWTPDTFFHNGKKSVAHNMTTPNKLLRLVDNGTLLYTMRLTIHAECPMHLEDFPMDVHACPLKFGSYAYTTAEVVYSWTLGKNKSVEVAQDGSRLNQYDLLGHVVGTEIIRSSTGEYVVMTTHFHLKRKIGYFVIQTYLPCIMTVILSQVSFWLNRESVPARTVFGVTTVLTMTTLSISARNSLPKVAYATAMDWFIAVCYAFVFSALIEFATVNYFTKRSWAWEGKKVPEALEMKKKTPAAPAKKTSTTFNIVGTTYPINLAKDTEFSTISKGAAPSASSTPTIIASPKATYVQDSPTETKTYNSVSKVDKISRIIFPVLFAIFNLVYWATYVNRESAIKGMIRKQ
T1 sequence (P28472 26-473 partner): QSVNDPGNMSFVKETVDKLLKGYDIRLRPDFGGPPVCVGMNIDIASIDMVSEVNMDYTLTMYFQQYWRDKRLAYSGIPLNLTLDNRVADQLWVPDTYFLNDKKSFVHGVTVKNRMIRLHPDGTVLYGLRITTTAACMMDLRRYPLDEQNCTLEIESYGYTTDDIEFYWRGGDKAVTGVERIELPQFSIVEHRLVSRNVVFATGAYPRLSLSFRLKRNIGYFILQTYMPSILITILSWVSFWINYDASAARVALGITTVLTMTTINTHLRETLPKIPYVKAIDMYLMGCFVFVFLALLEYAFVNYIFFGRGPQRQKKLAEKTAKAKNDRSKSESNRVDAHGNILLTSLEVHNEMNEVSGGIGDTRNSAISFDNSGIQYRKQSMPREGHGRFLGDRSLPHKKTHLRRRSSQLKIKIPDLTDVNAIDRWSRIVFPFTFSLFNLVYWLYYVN
T1 sequence (P18507 40-467 limits assumed): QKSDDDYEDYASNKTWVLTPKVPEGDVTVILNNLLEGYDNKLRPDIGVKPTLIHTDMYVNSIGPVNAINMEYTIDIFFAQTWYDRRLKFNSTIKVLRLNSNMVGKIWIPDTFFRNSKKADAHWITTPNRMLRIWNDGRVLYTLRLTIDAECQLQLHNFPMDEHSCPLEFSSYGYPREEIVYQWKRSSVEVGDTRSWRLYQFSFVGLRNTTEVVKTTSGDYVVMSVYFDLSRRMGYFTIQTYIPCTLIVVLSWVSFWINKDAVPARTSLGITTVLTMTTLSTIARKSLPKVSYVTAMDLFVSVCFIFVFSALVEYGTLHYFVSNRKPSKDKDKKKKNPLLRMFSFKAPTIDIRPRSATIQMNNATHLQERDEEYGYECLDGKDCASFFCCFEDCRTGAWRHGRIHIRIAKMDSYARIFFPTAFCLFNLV
From the text: as §3

[2] = system: benzodiazepine binding site of GABAARs; assay: α-methyl 5-HT-induced itch in HRRR mice (α2, α3, α5 GABAARs benzodiazepine-insensitive); format: in vivo; conditions: 1 mg/kg p.o.; 20 μg α-methyl 5-HT
Description: as §2

[3] = biological target: T2, α2GABAARs with H→R point mutation in the α2 subunit (Homo sapiens, UniProt P18507+P47869, H129R); assay: positive allosteric modulation of H→R point-mutated α2GABAARs in HEK 293 cells; format: cell-based; conditions: 1 μM
T2 construct: expressed in transfected cells; host or cells: HEK 293 cells, transient transfection
T2 sequence (P47869 29-451 H129R): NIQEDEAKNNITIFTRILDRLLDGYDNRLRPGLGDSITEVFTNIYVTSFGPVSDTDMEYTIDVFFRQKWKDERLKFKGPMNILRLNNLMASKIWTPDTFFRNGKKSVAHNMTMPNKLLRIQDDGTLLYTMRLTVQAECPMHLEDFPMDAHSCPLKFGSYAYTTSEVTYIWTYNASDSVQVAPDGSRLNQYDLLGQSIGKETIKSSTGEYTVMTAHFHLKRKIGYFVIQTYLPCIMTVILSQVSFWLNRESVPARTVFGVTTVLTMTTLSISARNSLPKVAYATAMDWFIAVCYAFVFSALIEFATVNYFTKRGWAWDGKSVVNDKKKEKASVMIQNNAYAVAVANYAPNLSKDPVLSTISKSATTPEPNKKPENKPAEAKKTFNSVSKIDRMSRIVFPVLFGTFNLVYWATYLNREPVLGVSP
T2 sequence (P28472 26-473 partner): as the sequence (P28472 26-473 partner) above
T2 sequence (P18507 40-467 limits assumed): as the sequence (P18507 40-467 limits assumed) above
From the text: as §3

chloroquine-induced itch [4] = assay: chloroquine-induced itch (cheek injection) in wild-type mice; format: in vivo, wild-type C57BL6/J mice; conditions: p.o.; wild-type mice; 100 μg chloroquine
Description: as §2

chloroquine-induced itch [5] = assay: chloroquine-induced itch (thigh injection), intrathecal drug, wild-type mice; format: in vivo; conditions: 0.3 mg/kg intrathecal; 100 μg chloroquine into right thigh
Description: as §2

CC(C)(O)c1cnn2c(-c3ccc(F)c(-c4c(F)cccc4C#N)c3)cnc2n1 [TPA023B, 6,2′-difluoro-5′-[3-(1-hydroxy-1-methylethyl)imidazo[1,2-b][1,2,4]triazin-7-yl]biphenyl-2-carbonitrile]
motor coordination in the rotarod assay (motor coordination): did not reduce motor coordination | scratching bouts, histamine-induced itch (histamine-induced itch): dose-dependent reduction of scratching bouts | antipruritic action in wild-type mice (α-Me-5HT-induced itch): strong antipruritic actions | potentiation of GABA-induced currents (α5GABAARs): only very weak potentiating effects | displacement of [3H]Ro 15-4513 binding [1]: failed to displace | muscle relaxation in the horizontal wire test (muscle relaxation): did not cause muscle relaxation | activity at the benzodiazepine binding site (potentiation of GABA-induced currents) (α3 GABAARs): partial agonistic activity | antipruritic action in HRRR mice [2]: completely lost its antipruritic action | positive allosteric modulation of H→R point-mutated α2GABAARs [3]: abolished | doses at which chloroquine-induced scratching behavior was reduced (chloroquine-induced itch [4]): 0.03 mg/kg | antipruritic action after intrathecal injection (biting time, scratching bouts 0-10 min) (chloroquine-induced itch [5]): antipruritic action
